One test deals with T1, 5-HT1A (Rattus norvegicus, UniProt P19327).
T1 construct: Hippocampal tissue from the brains of male Charles River CD rats; from tissue; host or cells: rat hippocampus (male Charles River CD rats), crude membrane pellet
T1 sequence (P19327 1-422): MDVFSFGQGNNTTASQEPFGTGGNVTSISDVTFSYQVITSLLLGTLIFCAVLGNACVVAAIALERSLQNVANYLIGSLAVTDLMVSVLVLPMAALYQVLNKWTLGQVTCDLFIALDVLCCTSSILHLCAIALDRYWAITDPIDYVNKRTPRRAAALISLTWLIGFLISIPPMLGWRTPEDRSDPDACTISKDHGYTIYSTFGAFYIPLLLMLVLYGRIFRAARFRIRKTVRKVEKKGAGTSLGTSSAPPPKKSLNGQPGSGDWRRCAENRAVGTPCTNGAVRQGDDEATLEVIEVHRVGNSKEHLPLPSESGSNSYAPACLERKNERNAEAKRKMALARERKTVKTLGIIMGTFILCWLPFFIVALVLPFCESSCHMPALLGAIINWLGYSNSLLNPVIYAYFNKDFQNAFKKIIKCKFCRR
Briefly: inhibition of tritiated ligand ([3H]8-OH-DPAT) binding to 5-HT1A receptors, rat hippocampal tissue. Also noted: species or system male Charles River CD rats. Conditions: for inhibition at 1 µM: at 10^-6 M, read-out: % displacement of specific binding, 5-HT1A; for Ki: 25° C., 30 minutes, pH 7.7. As for the experimental part: Hippocampal tissue from the brains of male Charles River CD rats weighing between 150-250 g were homogenised in ice-cold 50 mM Tris-HCl buffer (pH 7.7) when measured at 25° C., 1:40 w/v) and centrifuged at 30,000 g at 4° C. for 10 minutes. The pellet was rehomogenised in the same buffer, incubated at 37° C. for 10 minutes and centrifuged at 30,000 g at 4° C. for 10 minutes. The final pellet was resuspended in 50 mM Tris-HCl buffer (pH 7.7) containing 4 mM CaCl2, 0.1% L-ascorbic acid and 10 μM pargyline hydrochloride (equivalent to 6.25 mg wet weight of tissue/ml) and used immediately in the binding assay. Aliquots (400 μl; equivalent to 2.5 mg wet weight of tissue/tube) of this suspension were added to tubes containing the ligand (50 μl; 2 nM) and distilled water (50 μl; total binding) or 5-HT (50 μl; 10 μM; non-specific binding) or test compound (50 μl; at a single concentration of 10^-6 M or at 10 concentrations ranging from 10^-11 -10^-3 M). The ligand was [^3 H]8-hydroxy-2-(dipropylamino)tetralin ([^3 H]8-OH-DPAT) and the mixture was incubated at 25° C. for 30 minutes before the incubation was terminated by rapid filtration.
The filters were washed with ice-cold Tris-HCl buffer and dried. The filters were punched out into vials, scintillation fluid added and radioactivity determined by liquid scintillation counting. The percentage displacement of specific binding of the tritiated ligand was calculated for the single concentration (10^-6 M) of test compound. Displacement curves were then produced for those compounds which displaced ≥50% of specific binding of the tritiated ligand at 10^-6 M using a range of concentrations of the compound. The concentration which gave 50% inhibition of specific binding (IC50) was obtained from the curve. The inhibition coefficient Ki was then calculated using the formula [formula] in which [ligand] is the concentration of the tritiated ligand used and KD Is the equilibrium dissociation constant for the ligand.

In test [1] the target is T2, D2-like dopamine receptors (Rattus norvegicus, UniProt P61169).
T2 construct: Striatal tissue from the brains of male Charles River CD rats; from tissue; host or cells: rat striatum (male Charles River CD rats), crude membrane pellet
Description: inhibition of tritiated (S)-sulpiride binding to D2-like dopamine receptors, rat striatal tissue. Also noted: species or system male Charles River CD rats. The conditions noted are these: for Ki: 4° C., 40 minutes, pH 7.7; for inhibition at 1 µM: at 10^-6 M, read-out: % displacement of specific binding, D2-like. As for the experimental part: Striatal tissue from the brains of male Charles River CD rats weighing between 140-250 g were homogenised in ice-cold 50 mM Tris-HCl buffer (pH 7.7 when measured at 25° C.) and centrifuged at 40,000 g for 10 minutes. The pellet was resuspended in Tris salts buffer (50 mM Tris-HCl buffer containing 120 mM NaCl, 5 mM KCl, 2 mM CaCl2 and 1 mM MgCl2 with the addition of 6 mM ascorbic acid; pH 7.7 when measured at 25° C.), and again centrifuged at 40,000 g for 10 minutes. The final pellet was stored at -80° C. Before each test the pellet was resuspended in Tris salts buffer (equivalent to 2 mg wet weight of tissue/ml). Aliquots (720 μl; equivalent to 1.44 mg wet weight of tissue/tube) of this suspension were then added to tubes containing the ligand (40 μl; 1 nM) and Tris salts buffer (40 μl; total binding) or spiroperidol (40 μl; 10 nM; non-specific binding) or test compound (40 μl; at a single concentration of 10^-6 M or at 6 concentrations ranging from 10^-11 -10^-4 M). The ligand was tritiated (S)-sulpiride and the mixture was incubated at 4° C. for 40 minutes before the incubation was terminated by rapid filtration.
The filters were washed with ice-cold Tris-HCl buffer and dried. The filters were punched out in to vials, scintillation fluid added and were left for about 20 hours before being counted by scintillation spectrophotometry. The percentage displacement of specific binding of the tritiated ligand was calculated for the single concentration (10^-6 M) of test compound. Displacement curves were then produced over a range of concentrations for those compounds which displaced ≥50% of specific binding of the tritiated ligand at 10^-6 M. The concentration which gave a 50% inhibition of specific binding (IC50) was obtained from the curve. The inhibition coefficient Ki was then calculated using the formula [formula] in which [ligand] is the concentration of the tritiated ligand used and KD is the equilibrium dissociation constant for the ligand.

Molecules are shown by their SMILES.

T2 sequence (P61169 whole entry): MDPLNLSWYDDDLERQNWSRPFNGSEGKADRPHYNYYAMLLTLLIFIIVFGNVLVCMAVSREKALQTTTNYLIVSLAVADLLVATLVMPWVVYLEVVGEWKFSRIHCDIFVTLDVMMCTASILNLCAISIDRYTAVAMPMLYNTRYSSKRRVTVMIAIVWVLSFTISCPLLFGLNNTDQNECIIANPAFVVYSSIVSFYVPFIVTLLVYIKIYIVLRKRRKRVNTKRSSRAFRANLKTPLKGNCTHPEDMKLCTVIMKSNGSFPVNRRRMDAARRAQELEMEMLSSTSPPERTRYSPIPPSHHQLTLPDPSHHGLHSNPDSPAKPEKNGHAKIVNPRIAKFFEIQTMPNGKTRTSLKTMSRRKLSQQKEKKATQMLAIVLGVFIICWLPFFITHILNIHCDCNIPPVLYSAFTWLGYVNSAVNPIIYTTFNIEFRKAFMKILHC

On to `O=S(=O)(NCC1CCN(C[C@H]2COc3ccc(Cl)cc3O2)CC1)c1cccc2ccccc12` [Example 31, (S)-N-{[1-(7-Chloro-1,4-benzodioxan-2-ylmethyl)-4-piperidyl]methyl}-1-naphthalenesulphonamide], for which the inhibition at 1 µM on 5-HT1A stood at 60%. The Ki (usually the equilibrium dissociation constant of an inhibitor or competing ligand from its target) in test [1] stood at 215 nM.

On to `COc1ccc(OC)c(S(=O)(=O)NCC2CCN(C[C@H]3COc4ccc(Cl)cc4O3)CC2)c1` [Example 32, (S)-N-{[1-(7-Chloro-1,4-benzodioxan-2-ylmethyl)-4-piperidyl]methyl}-2,5-dimethoxybenzenesulphonamide], for which the inhibition at 1 µM on 5-HT1A worked out at 87%. Moreover, affinity in test [1] was put at a Ki of 285 nM.

As for `Cc1ccc(S(=O)(=O)NCC2CCN(C[C@H]3COc4ccc(Cl)cc4O3)CC2)cc1` [Example 33, (S)-N-{[1-(7-Chloro-1,4-benzodioxan-2-ylmethyl)-4-piperidyl]methyl}-4-methylbenzenesulphonamide], the inhibition at 1 µM on 5-HT1A was found to be 91%. In test [1], this molecule showed a Ki of 301 nM.

For `O=S(=O)(NCC1CCN(C[C@H]2COc3ccc(Cl)cc3O2)CC1)c1ccccc1` [Example 34, (S)-N-{[1-(7-Chloro-1,4-benzodioxan-2-ylmethyl)-4-piperidyl]methyl}benzene-sulphonamide], the inhibition at 1 µM on 5-HT1A was 87%. In test [1], this molecule registered a Ki of 88 nM.

As for `Cc1ccc(F)cc1S(=O)(=O)NCC1CCN(C[C@H]2COc3ccc(Cl)cc3O2)CC1` [Example 35, (S)-N-{[1-(7-Chloro-1,4-benzodioxan-2-ylmethyl)-4-piperidyl]methyl}-5-fluoro-2-methylbenzenesulphonamide], the inhibition at 1 µM at 5-HT1A is 81%. For the same molecule, the Ki in test [1] is 328 nM.

For `O=S(=O)(NCC1CCN(C[C@H]2COc3ccc(Cl)cc3O2)CC1)c1cc(Br)ccc1Br` [Example 36, (S)-2,5-Dibromo-N-{[1-(7-Chloro-1,4-benzodioxan-2-ylmethyl)-4-piperidyl]methyl}-benzenesulphonamide], the inhibition at 1 µM on 5-HT1A was 68%. Also, the Ki in test [1] came to 487 nM.

For `O=[N+]([O-])c1ccccc1S(=O)(=O)NCC1CCN(C[C@H]2COc3ccc(Cl)cc3O2)CC1` [Example 37, (S)-N-{[1-(7-Chloro-1,4-benzodioxan-2-ylmethyl)-4-piperidyl]methyl}-2-nitro-benzenesulphonamide], the inhibition at 1 µM at 5-HT1A was determined as 87%. The same molecule yielded a Ki in test [1] of 85 nM.

With `O=S(=O)(NCC1CCN(C[C@H]2COc3ccc(Cl)cc3O2)CC1)c1ccc(F)c(F)c1F` [Example 38, (S)-N-{[1-(7-Chloro-1,4-benzodioxan-2-ylmethyl)-4-piperidyl]methyl}-2,3,4-trifluorobenzenesulphonamide], on 5-HT1A, the inhibition at 1 µM was found to be 95%. The Ki in test [1] was 330 nM.

In the case of `O=S(=O)(NCC1CCN(C[C@H]2COc3ccc(Cl)cc3O2)CC1)c1c(F)c(Br)cc(F)c1Br` [Example 39, (S)-2,5-Dibromo-N-{[1-(7-chloro-1,4-benzodioxan-2-ylmethyl)-4-piperidyl]methyl}-3,6-difluorobenzenesulphonamide], the inhibition at 1 µM on 5-HT1A is 98%. The molecule also gave a Ki in test [1] of 438 nM.

Regarding `O=S(=O)(NCC1CCN(C[C@H]2COc3ccc(Cl)cc3O2)CC1)c1ccccc1F` [Example 40, (S)-(-)-N-{[1-(7-Chloro-1,4-benzodioxan-2-ylmethyl)-4-piperidyl]methyl}-2-fluorobenzenesulphonamide], the figures for the inhibition at 1 µM (on 5-HT1A; in test [1]) were 93% and 107%, respectively.

For the molecule `O=S(=O)(NCC1CCN(C[C@H]2COc3ccc(Cl)cc3O2)CC1)c1ccccc1Cl` [Example 41, (S)-(-)-2-Chloro-N-{[1-(7-chloro-1,4-benzodioxan-2-ylmethyl)-4-piperidyl]methyl}benzenesutphonamide], the inhibition at 1 µM on 5-HT1A was found to be 93%; in test [1], 106%.

For the molecule `O=S(=O)(NCC1CCN(C[C@H]2COc3ccc(Cl)cc3O2)CC1)c1ccc(F)c(Cl)c1` [Example 42, (S)-(-)-3-Chloro-N-{[1-(7-chloro-1,4-benzodioxan-2-ylmethyl)-4-piperidyl]methyl}-4-fluoro-benzenesulphonamide], the inhibition at 1 µM on 5-HT1A amounted to 80%; in test [1] it was 84%.

On to `O=S(=O)(NCC1CCN(C[C@H]2COc3ccc(Cl)cc3O2)CC1)c1cccc(Cl)c1Cl` [Example 43, (S)-(-)-2,3-Dichloro-N-{[1-(7-chloro-1,4-benzodioxan-2-ylmethyl)-4-piperidyl]methyl}benzenesulphonamide], for which the Ki was found to be 1.5 nM on 5-HT1A and 73 nM in test [1].

In the case of `CC(=O)Nc1ccc(S(=O)(=O)NCC2CCN(C[C@H]3COc4ccc(Br)cc4O3)CC2)cc1` [Example 44, (S)-(-)-4-Acetamido-N-{[1-(7-bromo-1,4-benzodioxan-2-ylmethyl}-4-piperidyl]methyl)benzenesulphonamide], the Ki on 5-HT1A is 14 nM; in test [1] it was 23 nM.

For `O=S(=O)(NCC1CCN(C[C@H]2COc3ccc(Br)cc3O2)CC1)c1ccccc1F` [Example 45, (S)-(-)-N-{[1-(7-Bromo-1,4-benzodioxan-2-ylmethyl)-4-piperidyl]methyl}-2-fluorobenzenesulphonamide], the inhibition at 1 µM at 5-HT1A is 97%; in test [1] it was 109%.

For the molecule `O=S(=O)(NCC1CCN(C[C@H]2COc3ccc(Br)cc3O2)CC1)c1ccccc1Cl` [Example 46, (S)-(-)-N-{[1-(7-Bromo-1,4-benzodioxan-2-ylmethyl)-4-piperidyl]methyl}-2-chlorobenzenesulphonamide], the inhibition at 1 µM is 96% on 5-HT1A and 106% in test [1].

Take `O=S(=O)(NCC1CCN(C[C@H]2COc3ccc(Br)cc3O2)CC1)c1ccc(F)cc1F` [Example 47, (S)-(-)-N-{[1-(7-Bromo-1,4-benzodioxan-2-ylmethyl)-4-piperidyl]methyl}-2,4-difluorobenzenesulphonamide]: the Ki at 5-HT1A was found to be 16 nM; in test [1], 48 nM.

On to `O=S(=O)(NCC1CCN(C[C@H]2COc3ccc(Br)cc3O2)CC1)c1ccc(F)c(Cl)c1` [Example 48, (S)-(-)-3-Chloro-N-{[1-(7-bromo-1,4-benzodioxan-2-ylmethyl)-4-piperidyl]methyl}-4-fluorobenzenesulphonamide], for which the inhibition at 1 µM at 5-HT1A was determined as 88%; in test [1], 103%.

Take `O=S(=O)(NCC1CCN(C[C@H]2COc3cc4c(cc3O2)OCO4)CC1)c1cccc(Cl)c1Cl` [Example 49, (S)-(-)-2,3-Dichloro-N-{[1-(^6,^7-methylenedioxy-1,4-benzodioxan-2-ylmethyl)-4-piperidyl]methyl}benzenesulphonamide]: the inhibition at 1 µM at 5-HT1A was found to be 77%; in test [1] it was 89%.

The record behind these values is patent publication US6136825A, “Sulfonamide compounds having 5-HT receptor activity” (Knoll Aktiengesellschaft, priority 1996, dated 2000).
